# Experiments:
# DNA S26 d(TGAAGGAAGG) = experiment: FP binding assay, 10-nt DNA S26
# Protocol: (§1) All synthetic DNA and RNA oligomers were purchased from Integrated DNA Technologies and reconstituted in nuclease-free water (Invitrogen #AM9932) at 1 mM. The concentration of the oligonucleotides at ˜0.1 mM was calibrated with the A260 value measured by a NanoDrop ND-1000 (Thermo, Waltham, MA, USA) and the predicted extinction coefficient (http://www.oligoevaluator.com) using Lamber-Beer's Law. The risdiplam analogues (1 mM in DMSO) were diluted in 2× assay buffer (40 mM HEPES, 200 mM NaCl for RNA; 40 mM HEPES, 200 mM NaCl, 1 mM MgCl2 for DNA) to make a 1 μM 2× working solution.
# (§2) A 1:2 dilution series (8 points) of each oligonucleotide was prepared in 20-30 μL water to desired concentrations (i.e., 1-128 μM). […] For fluorescence polarization measurement, 20 μL of the above 1× working solution was transferred into a 384-well, black, F-bottom microplates (Greiner Bio-One) in duplicates or triplicates. The plate was equilibrated at room temperature for 5 min before being read using a microplate reader (SYNERGY H1, BioTek; Excitation/Emission=360/460 nm) at 25° C. […] The mixture was then transferred into a microplate (20 μL each well) in duplicates for fluorescence polarization readout. The experimental data were analyzed using Prism 8 software (Graphpad Software, San Diego, CA, USA).
# DNA S22 […] = experiment: FP binding assay, 18-nt DNA S22
# Protocol: as §1, §2
# DNA S2 […] = experiment: FP binding assay, 18-nt DNA S2
# Protocol: as §1, §2
# DNA Seq9 TTAAGGAAGTT = experiment: FP binding assay, DNA Seq9; details: Seq 9 TTAAGGAAGTT; 0.5 μM SMN-C2
# Protocol: as §1, §2
# [1] = target: DNA Seq13 (UGAAGAAAGGU as deoxyribonucleotides); experiment: FP binding assay, DNA Seq13; details: Seq 13; 0.5 μM SMN-C2
# Protocol: as §1, §2
# [2] = system: SMN2 exon 7 minigenes with single-point mutations M1 and M2; experiment: SMN2 splicing assay with minigenes mutated in the GA-rich sequence (M1, M2) in 293T cells; format: cell-based, human
# DNA S11 […] = experiment: FP binding assay, 18-nt DNA S11
# Protocol: as §1, §2
# DNA Seq14 AGAAGGTAGGT = experiment: FP binding assay, DNA Seq14; details: Seq 14 AGAAGGTAGGT; 0.5 μM SMN-C2
# Protocol: as §1, §2
# DNA Seq6 = experiment: Isothermal titration calorimetry (ITC), DNA Seq6; format: binding; details: SMN-C2 250 μM into DNA Seq6 25 μM; MES buffer, 5% DMSO, 100 mM NaCl
# Protocol: Excess amount of SMN-C2 was eluted at retention volume ˜21 mL. The figures are the representation of three independent experiments.
# Isothermal calorimetric titrations were carried out on a Malvern Analytical MicroCal PEAQ-ITC at 25° C. The DNA (see above for the calibration procedure) and the SMN-C2 water solutions containing the desired amount of the materials were freeze-dried overnight (Labconco FreeZone 4.5 Liter Benchtop Freeze Dry System) and then re-suspended in appropriate volume of buffer containing 5% DMSO, 100 mM NaCl and 30 mM MES buffer at pH 6.0 (e.g., 350 μL for DNA Seq6, 80 μL for SMN-C2). […] The analysis was performed using the instrument's MicroCal PEAQ-ITC Analysis Software (Malvern Analytical). The ITC data was fit using the One Set of Sites mode to calculate the dissociate constant (Kd), binding stoichiometry, and the changes in enthalpy and Gibbs free energy. In differential power (DP) trace, the baseline was subtracted for better visualization, which has no impact on calculations.
# DNA S7 […] = experiment: FP binding assay, 18-nt DNA S7
# Protocol: as §1, §2
# DNA S25 […] = experiment: FP binding assay, 18-nt DNA S25
# Protocol: as §1, §2
# DNA S9 […] = experiment: FP binding assay, 18-nt DNA S9
# Protocol: as §1, §2
# DNA S16 […] = experiment: FP binding assay, 18-nt DNA S16
# Protocol: as §1, §2
# DNA Seq17 TGAAGGAAGAT = experiment: FP binding assay, DNA Seq17; details: Seq 17 TGAAGGAAGAT; 0.5 μM SMN-C2
# Protocol: as §1, §2
# DNA S24 […] = experiment: FP binding assay, 18-nt DNA S24
# Protocol: as §1, §2
# [3] = target: COVID RNA (SARS-CoV-2 RNA SL5 per FIG. 8); experiment: FP binding, Kd for COVID RNA; details: Table 3
# [4] = target: DNA Seq8 (UGAAGGAAGUU as deoxyribonucleotides); experiment: FP binding assay, DNA Seq8; details: Seq 8; 0.5 μM SMN-C2
# Protocol: as §1, §2
# DNA Seq2 d(GAAGGAAGG) = experiment: FP binding assay, 9-nt DNA Seq2
# Protocol: as §1, §2
# DNA S18 […] = experiment: FP binding assay, 18-nt DNA S18
# Protocol: as §1, §2
# RNA Seq4 […] = experiment: FP binding assay, RNA Seq4
# Protocol: as §1
# A 1:2 dilution series (8 points) of each oligonucleotide was prepared in 20-30 μL water to desired concentrations (i.e., 1-128 μM). 20-30 μL 2× working solution containing the 2× assay buffer and the small-molecule ligand was added to each oligonucleotide sample in 1:1 (v/v) and mixed by pipetting for 4 times. For fluorescence polarization measurement, 20 μL of the above 1× working solution was transferred into a 384-well, black, F-bottom microplates (Greiner Bio-One) in duplicates or triplicates. The plate was equilibrated at room temperature for 5 min before being read using a microplate reader (SYNERGY H1, BioTek; Excitation/Emission=360/460 nm) at 25° C. For compound SMN-C5, a competitive binding assay was employed to measure an apparent Kd. SMN-C5 was 1:2 serial diluted for 10 concentration points starting at 750 μM in DMSO. A mixture of SMN-C2 (0.5 μM) and DNA Seq6 (25 μM) in 1× assay buffer was prepared and incubated at room temperature for 10 minutes. 3 μL of SMN-C5 solution at each concentration was added to a 42 μL SMN-C2/DNA Seq6 mixture and incubated at room temperature for 10 minutes. The mixture was then transferred into a microplate (20 μL each well) in duplicates for fluorescence polarization readout. The experimental data were analyzed using Prism 8 software (Graphpad Software, San Diego, CA, USA).
# DNA S8 […] = experiment: FP binding assay, 18-nt DNA S8
# Protocol: as §1, §2
# in vitro = details: human
# RNA Seq13 UGAAGAAAGGU = experiment: FP binding assay, RNA Seq13; details: Seq 13 UGAAGAAAGGU; 0.5 μM SMN-C2
# Protocol: as §1, §2
compound,measurement,setting,value
"CCN1CCN(c2ccc3cc(-c4cn5cc(C)nc(C)c5n4)c(=O)oc3c2)C[C@@H]1C [SMN-C2, (S)-3-(6,8-dimethylimidazo[1,2-a]pyrazin-2-yl)-7-(4-ethyl-3-methylpiperazin-1-yl)-2H-chromen-2-one]",Kd,DNA S26 d(TGAAGGAAGG),6.2 ± 1 µM
same,Kd,DNA S22 […],44.7 ± 7.2 µM
same,Kd,DNA S2 […],20.2 ± 1.7 µM
same,Kd,DNA Seq9 TTAAGGAAGTT,> 100 µM
same,Kd,[1],> 100 µM
same,exon 7 inclusion,"[2]; 1 μM, 293T cells transfected with mutated minigenes M1, M2",> 90%
same,"EC50 relative to minigene with wildtype exon 7 sequence, fold higher","[2]; mutated minigenes M1, M2 in 293T cells",2-3 fold
same,Kd,DNA S11 […],26.3 ± 1.2 µM
same,Kd,DNA Seq14 AGAAGGTAGGT,> 100 µM
same,Kd,DNA Seq6,4.8 µM
same,Kd,DNA S7 […],17.3 ± 1.7 µM
same,Kd,DNA S25 […],48 ± 7.8 µM
same,Kd,DNA S9 […],56.2 ± 13.9 µM
same,Kd,DNA S16 […],48.9 ± 12.2 µM
same,Kd,DNA Seq17 TGAAGGAAGAT,56.4 ± 10.4 µM
same,Kd,DNA S24 […],36.8 ± 11.4 µM
same,Kd,[3],1.6 ± 0.4 µM
same,Kd,[4],14.7 ± 0.7 µM
same,Kd,DNA Seq2 d(GAAGGAAGG),34.3 ± 9.6 µM
same,Kd,DNA S18 […],> 50 µM
same,Kd,RNA Seq4 […],21.7 ± 4.3 µM
same,Kd,DNA S8 […],12.4 ± 0.4 µM
same,CC50,in vitro,> 30 µM
same,Kd,RNA Seq13 UGAAGAAAGGU,> 100 µM

# Reference: patent US20250368651A1 (priority 2022, published 2025)
